Consider 26 compounds from publication PMC8161055, “Synthesis and α-Glucosidase Inhibition Activity of 2-[3-(Benzoyl/4-bromobenzoyl)-4-hydroxy-1,1-dioxido-2H-benzo[e][1,2]thiazin-2-yl]-N-arylacetamides: An In Silico and Biochemical Approach” (Molecules, 2021).

The target in data set [1] is T1, α-glucosidase (Saccharomyces cerevisiae, UniProt P53341).
T1 construct: purchased Sigma-Aldrich, Munich, Germany
As to the kind of experiment: biochemical. As to conditions: for inhibition at 200 µM: read-out: Inhibitions (%); for effectiveness as inhibitor compared to acarbose: ratio of IC50 values vs acarbose. It counts as biochemical. As for the experimental part: In vitro analysis of all the synthesized compounds was performed in order to justify the validity of in silico outcomes. Results were found in good agreement with the in silico study. […] A general spectrophotometric technique was used to perform the α-glucosidase inhibition assay with slight modifications. […] The experiment was repeated thrice and inhibition percentages were calculated using the following formula. % Inhibition = [(A control − A sample) / A control] × 100(1) where ‘A’ stands for absorbance.

Read-outs that look alike come from different tables or passages of the source.

T1 sequence (P53341 whole entry): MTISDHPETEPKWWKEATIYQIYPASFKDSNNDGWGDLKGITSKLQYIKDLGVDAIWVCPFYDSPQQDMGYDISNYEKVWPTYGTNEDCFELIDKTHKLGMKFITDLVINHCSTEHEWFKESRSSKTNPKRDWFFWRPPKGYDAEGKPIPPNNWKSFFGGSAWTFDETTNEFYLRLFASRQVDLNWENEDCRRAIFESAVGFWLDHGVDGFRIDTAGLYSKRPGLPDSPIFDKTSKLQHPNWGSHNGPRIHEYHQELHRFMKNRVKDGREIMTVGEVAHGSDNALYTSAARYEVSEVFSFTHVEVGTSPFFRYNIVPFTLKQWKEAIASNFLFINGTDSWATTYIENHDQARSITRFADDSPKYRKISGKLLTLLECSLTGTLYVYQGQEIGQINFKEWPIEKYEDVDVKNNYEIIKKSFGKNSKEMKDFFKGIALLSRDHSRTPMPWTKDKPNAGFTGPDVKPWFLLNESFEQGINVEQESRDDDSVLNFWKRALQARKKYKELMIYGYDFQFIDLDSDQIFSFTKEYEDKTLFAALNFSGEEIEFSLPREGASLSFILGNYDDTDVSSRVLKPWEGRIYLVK

Turning to “2-(3-(4-Bromobenzoyl)-4-hydroxy-1,1-dioxido-2H-benzo[e][1,2]thiazin-2-yl)-N-(4-methoxyphenyl)acetamide [Compound 12m]”, the IC50 in data set [1] (PNPG substrate, pH 6.8, 37 °C, read-out: IC50) is 58.5 µM. In addition, the “Inhibitions (%)” value in data set [1] (at 200 μM concentration) turned out to be 65%.

Compound `O=C(C1=C(O)c2ccccc2S(=O)(=O)N1)c1ccccc1` [Compound 9a, (4-Hydroxy-1,1-dioxido-2H-benzo[e][1,2]thiazin-3-yl)(phenyl)methanone] displayed a melting point of 156 to 157 °C. The inhibition at 200 µM in data set [1] was found to be 20%.

Compound `O=C(C1=C(O)c2ccccc2S(=O)(=O)N1)c1ccc(Br)cc1` [Compound 9b, (4-Bromophenyl)(4-hydroxy-1,1-dioxido-2H-benzo[e][1,2]thiazin-3-yl)methanone] gave a melting point of 144 to 146 °C. In data set [1], the IC50 is above 100 µM and the inhibition at 200 µM is 55%.

For the compound `O=C(CN1C(C(=O)c2ccccc2)=C(O)c2ccccc2S1(=O)=O)Nc1ccccc1Cl` [Compound 11a, 2-(3-Benzoyl-4-hydroxy-1,1-dioxido-2H-benzo[e][1,2]thiazin-2-yl)-N-(2-chlorophenyl)acetamide], the melting point was 141 to 142 °C. Further, the inhibition at 200 µM in data set [1] came out at 39%.

The compound `O=C(CN1C(C(=O)c2ccccc2)=C(O)c2ccccc2S1(=O)=O)Nc1cccc(Cl)c1` [Compound 11b, 2-(3-Benzoyl-4-hydroxy-1,1-dioxido-2H-benzo[e][1,2]thiazin-2-yl)-N-(3-chlorophenyl)acetamide] gave a melting point of 182 to 184 °C. Besides, the inhibition at 200 µM in data set [1] stood at 32%.

`O=C(CN1C(C(=O)c2ccccc2)=C(O)c2ccccc2S1(=O)=O)Nc1ccc(Cl)cc1` [Compound 11c, 2-(3-Benzoyl-4-hydroxy-1,1-dioxido-2H-benzo[e][1,2]thiazin-2-yl)-N-(4-chlorophenyl)acetamide] yielded a melting point of 146 to 148 °C. Besides, in data set [1], the IC50 stood at 30.6 µM and the inhibition at 200 µM was 79%.

Compound `Cc1ccccc1NC(=O)CN1C(C(=O)c2ccccc2)=C(O)c2ccccc2S1(=O)=O` [Compound 11d, 2-(3-Benzoyl-4-hydroxy-1,1-dioxido-2H-benzo[e][1,2]thiazin-2-yl)-N-(o-tolyl)acetamide] had a melting point of 165 to 167 °C. Besides, the inhibition at 200 µM in data set [1] was 10%.

For the compound `Cc1cccc(NC(=O)CN2C(C(=O)c3ccccc3)=C(O)c3ccccc3S2(=O)=O)c1` [Compound 11e, 2-(3-Benzoyl-4-hydroxy-1,1-dioxido-2H-benzo[e][1,2]thiazin-2-yl)-N-(m-tolyl)acetamide], the melting point was in the range of 177 to 178 °C. Also, in data set [1], the inhibition at 200 µM stood at 15%.

`Cc1ccc(NC(=O)CN2C(C(=O)c3ccccc3)=C(O)c3ccccc3S2(=O)=O)cc1` [Compound 11f, 2-(3-Benzoyl-4-hydroxy-1,1-dioxido-2H-benzo[e][1,2]thiazin-2-yl)-N-(p-tolyl)acetamide] had a melting point of 136 to 137 °C. The inhibition at 200 µM in data set [1] was 37%.

Turning to `O=C(CN1C(C(=O)c2ccccc2)=C(O)c2ccccc2S1(=O)=O)Nc1ccccc1[N+](=O)[O-]` [Compound 11g, 2-(3-Benzoyl-4-hydroxy-1,1-dioxido-2H-benzo[e][1,2]thiazin-2-yl)-N-(2-nitrophenyl)acetamide], the melting point is 157 to 158 °C. In addition, in data set [1], the IC50 came out at 88.1 µM and the inhibition at 200 µM is 58%.

`O=C(CN1C(C(=O)c2ccccc2)=C(O)c2ccccc2S1(=O)=O)Nc1cccc([N+](=O)[O-])c1` [Compound 11h, 2-(3-Benzoyl-4-hydroxy-1,1-dioxido-2H-benzo[e][1,2]thiazin-2-yl)-N-(3-nitrophenyl)acetamide] returned a melting point of 170 to 172 °C. In data set [1], half-maximal inhibition (IC50) required 47.1 µM and the inhibition at 200 µM turned out to be 63%.

With `O=C(CN1C(C(=O)c2ccccc2)=C(O)c2ccccc2S1(=O)=O)Nc1ccc([N+](=O)[O-])cc1` [Compound 11i, 2-(3-Benzoyl-4-hydroxy-1,1-dioxido-2H-benzo[e][1,2]thiazin-2-yl)-N-(4-nitrophenyl)acetamide], the melting point lay in the range of 194 to 195 °C. For the same compound, in data set [1], it took 40.4 µM to reach half-maximal inhibition (IC50) and the inhibition at 200 µM was 77%.

For the compound `O=C(CN1C(C(=O)c2ccccc2)=C(O)c2ccccc2S1(=O)=O)Nc1cccc(Br)c1` [Compound 11j, 2-(3-Benzoyl-4-hydroxy-1,1-dioxido-2H-benzo[e][1,2]thiazin-2-yl)-N-(3-bromophenyl)acetamide], the melting point was 163 to 166 °C. For the same compound, in data set [1], the concentration for half-maximal inhibition (IC50) was above 100 µM and the inhibition at 200 µM came out at 50%.

Compound `O=C(CN1C(C(=O)c2ccccc2)=C(O)c2ccccc2S1(=O)=O)Nc1ccc(Br)cc1` [Compound 11k, 2-(3-Benzoyl-4-hydroxy-1,1-dioxido-2H-benzo[e][1,2]thiazin-2-yl)-N-(4-bromophenyl)acetamide] came in with a melting point of 150 to 153 °C. Moreover, the inhibition at 200 µM in data set [1] came out at 13%.

`COc1ccccc1NC(=O)CN1C(C(=O)c2ccccc2)=C(O)c2ccccc2S1(=O)=O` [Compound 11l, 2-(3-Benzoyl-4-hydroxy-1,1-dioxido-2H-benzo[e][1,2]thiazin-2-yl)-N-(2-methoxyphenyl)acetamide] registered a melting point of 199 to 200 °C. In data set [1], the half-maximal inhibitory concentration (IC50) was above 100 µM and the inhibition at 200 µM is 54%.

`COc1ccc(NC(=O)CN2C(C(=O)c3ccccc3)=C(O)c3ccccc3S2(=O)=O)cc1` [Compound 11m, 2-(3-Benzoyl-4-hydroxy-1,1-dioxido-2H-benzo[e][1,2]thiazin-2-yl)-N-(4-methoxyphenyl)acetamide]: the melting point was 164 to 165 °C. For the same compound, the inhibition at 200 µM in data set [1] came to 69%.

In turn, `O=C(CN1C(C(=O)c2ccc(Br)cc2)=C(O)c2ccccc2S1(=O)=O)Nc1ccccc1Cl` [Compound 12a, 2-(3-(4-Bromobenzoyl)-4-hydroxy-1,1-dioxido-2H-benzo[e][1,2]thiazin-2-yl)-N-(2-chlorophenyl)acetamide] came in with a melting point of 180 to 181 °C. For the same compound, in data set [1], 18.2 µM corresponded to half-maximal inhibition (IC50), the “effectiveness as inhibitor compared to acarbose” value was “roughly three-fold” and the inhibition at 200 µM came out at 79%.

On to `O=C(CN1C(C(=O)c2ccc(Br)cc2)=C(O)c2ccccc2S1(=O)=O)Nc1cccc(Cl)c1` [Compound 12b, 2-(3-(4-Bromobenzoyl)-4-hydroxy-1,1-dioxido-2H-benzo[e][1,2]thiazin-2-yl)-N-(3-chlorophenyl)acetamide], for which the melting point was in the range of 148 to 150 °C. Further, the inhibition at 200 µM in data set [1] was 47%.

`O=C(CN1C(C(=O)c2ccc(Br)cc2)=C(O)c2ccccc2S1(=O)=O)Nc1ccc(Cl)cc1` [Compound 12c, 2-(3-(4-Bromobenzoyl)-4-hydroxy-1,1-dioxido-2H-benzo[e][1,2]thiazin-2-yl)-N-(4-chlorophenyl)acetamide]: the melting point fell in the range of 181 to 184 °C. Moreover, in data set [1], the IC50 was above 100 µM and the inhibition at 200 µM worked out at 61%.

In the case of `Cc1ccccc1NC(=O)CN1C(C(=O)c2ccc(Br)cc2)=C(O)c2ccccc2S1(=O)=O` [Compound 12d, 2-(3-(4-Bromobenzoyl)-4-hydroxy-1,1-dioxido-2H-benzo[e][1,2]thiazin-2-yl)-N-(o-tolyl)acetamide], the melting point is 193 to 194 °C. In data set [1], half-maximal inhibition (IC50) required 20.8 µM, the “effectiveness as inhibitor compared to acarbose” value is “roughly three-fold” and the inhibition at 200 µM came out at 76%.

In turn, `Cc1cccc(NC(=O)CN2C(C(=O)c3ccc(Br)cc3)=C(O)c3ccccc3S2(=O)=O)c1` [Compound 12e, 2-(3-(4-Bromobenzoyl)-4-hydroxy-1,1-dioxido-2H-benzo[e][1,2]thiazin-2-yl)-N-(m-tolyl)acetamide] showed a melting point of 143 to 144 °C. Moreover, in data set [1], inhibition was half-maximal at 35.1 µM (IC50) and the inhibition at 200 µM is 71%.

For `Cc1ccc(NC(=O)CN2C(C(=O)c3ccc(Br)cc3)=C(O)c3ccccc3S2(=O)=O)cc1` [Compound 12f, 2-(3-(4-Bromobenzoyl)-4-hydroxy-1,1-dioxido-2H-benzo[e][1,2]thiazin-2-yl)-N-(p-tolyl)acetamide], the melting point lay within 190 to 192 °C. Further, the inhibition at 200 µM in data set [1] came out at 20%.

Take `O=C(CN1C(C(=O)c2ccc(Br)cc2)=C(O)c2ccccc2S1(=O)=O)Nc1ccccc1[N+](=O)[O-]` [Compound 12g, 2-(3-(4-Bromobenzoyl)-4-hydroxy-1,1-dioxido-2H-benzo[e][1,2]thiazin-2-yl)-N-(2-nitrophenyl)acetamide]: the melting point lay within 177 to 178 °C. Besides, in data set [1], the IC50 amounted to 24.2 µM and the inhibition at 200 µM came to 76%.

For the compound `O=C(CN1C(C(=O)c2ccc(Br)cc2)=C(O)c2ccccc2S1(=O)=O)Nc1cccc([N+](=O)[O-])c1` [Compound 12h, 2-(3-(4-Bromobenzoyl)-4-hydroxy-1,1-dioxido-2H-benzo[e][1,2]thiazin-2-yl)-N-(3-nitrophenyl)acetamide], the melting point fell in the range of 208 to 209 °C. For the same compound, in data set [1], the half-maximal inhibitory concentration (IC50) is above 100 µM and the inhibition at 200 µM was 58%.

In turn, `O=C(CN1C(C(=O)c2ccc(Br)cc2)=C(O)c2ccccc2S1(=O)=O)Nc1ccc([N+](=O)[O-])cc1` [Compound 12i, 2-(3-(4-Bromobenzoyl)-4-hydroxy-1,1-dioxido-2H-benzo[e][1,2]thiazin-2-yl)-N-(4-nitrophenyl)acetamide] gave a melting point of 210 to 212 °C. The inhibition at 200 µM in data set [1] worked out at 33%.

As to `O=C(CN1C(C(=O)c2ccc(Br)cc2)=C(O)c2ccccc2S1(=O)=O)Nc1cccc(Br)c1` [Compound 12j, 2-(3-(4-Bromobenzoyl)-4-hydroxy-1,1-dioxido-2H-benzo[e][1,2]thiazin-2-yl)-N-(3-bromophenyl)acetamide], the melting point fell in the range of 145 to 147 °C. The inhibition at 200 µM in data set [1] is 12%.

Usually IC50 stands for the concentration that gives 50% inhibition. A word on the melting point: it is the temperature of the solid-liquid transition.
